Test results: patent publication US20250230193A1, “CYCLIC COMPOUND HAVING SELECTIVE KRAS INHIBITORY EFFECT ON HRAS AND NRAS” (CHUGAI SEIYAKU KABUSHIKI KAISHA, priority 2022, published 2025)

Assays:
[1] = biological target: GDP-bound NRAS wild-type protein (Homo sapiens, UniProt P01111); assay: Binding to NRAS by surface plasmon resonance (SPR), Single Cycle Kinetics; details: SPR, GDP-bound NRAS wild-type vs GDP-bound KRAS wild-type
[2] = biological target: GDP-bound HRAS wild-type protein (Homo sapiens, UniProt P01112); assay: Binding to HRAS by surface plasmon resonance (SPR), Single Cycle Kinetics; details: SPR, GDP-bound HRAS wild-type vs GDP-bound KRAS wild-type
Chain of GDP-bound HRAS wild-type protein (P01112 whole entry): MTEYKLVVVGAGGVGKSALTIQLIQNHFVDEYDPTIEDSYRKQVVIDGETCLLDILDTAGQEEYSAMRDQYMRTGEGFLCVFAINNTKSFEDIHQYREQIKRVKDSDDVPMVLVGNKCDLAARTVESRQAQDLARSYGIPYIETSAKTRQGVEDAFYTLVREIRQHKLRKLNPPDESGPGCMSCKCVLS

Chain of GDP-bound NRAS wild-type protein (P01111 whole entry): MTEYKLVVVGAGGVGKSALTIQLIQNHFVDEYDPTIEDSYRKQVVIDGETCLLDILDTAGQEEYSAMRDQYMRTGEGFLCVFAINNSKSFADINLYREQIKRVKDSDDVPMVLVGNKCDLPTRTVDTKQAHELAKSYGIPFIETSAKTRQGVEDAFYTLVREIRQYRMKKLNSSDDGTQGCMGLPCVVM

Compound	NRAS/KRAS (ratio of KD value with respect to NRAS to KD value with respect to KRAS) [1]	HRAS/KRAS (ratio of KD value with respect to HRAS to KD value with respect to KRAS) [2]
CCO[C@@H]1C[C@H]2C(=O)NC3(CC(C)(C)C3)C(=O)N(C)[C@@H](C(CC)CC)C(=O)N(C)[C@H](C(=O)N(C)C)CC(=O)N(C)[C@@H](COC)C(=O)N[C@@H]([C@@H](C)CC)C(=O)N(C)CC(=O)N(C)[C@H]3C/C=C\CCN(C3=O)[C@@H](CC3CCCCC3)C(=O)N(C)CC(=O)N[C@@H](CCc3cc(F)c(C(F)(F)F)c(F)c3)C(=O)N2C1 [PP2456]	A (a compound having 10 or more and less than 20 is denoted as A)	A (a compound having 10 or more and less than 20 is denoted as A)
CCOC[C@H]1C(=O)N[C@@H]([C@@H](C)CC)C(=O)N(C)CC(=O)N(C)[C@H]2C/C=C\CCN(C2=O)[C@@H](Cc2ccc(C)cc2)C(=O)N(C)CC(=O)N[C@@H](CCc2cc(F)c(C(F)(F)F)c(F)c2)C(=O)N2C[C@@H](C)C[C@H]2C(=O)NC2(CC(C)(C)C2)C(=O)N(C)[C@@H](C2CCCC2)C(=O)N(C)[C@H](C(=O)N(C)CC)CC(=O)N1C [PP2457]	A (a compound having 10 or more and less than 20 is denoted as A)	A (a compound having 10 or more and less than 20 is denoted as A)
CCOC[C@H]1C(=O)N[C@@H]([C@@H](C)CC)C(=O)N(C)CC(=O)N(C)[C@H]2C/C=C\CCN(C2=O)[C@@H](CC2CCC(F)(F)CC2)C(=O)N(C)CC(=O)N[C@@H](CCc2ccc(C(F)(F)F)c(OC)c2)C(=O)N2C[C@@H](C)C[C@H]2C(=O)NC2(CC(C)(C)C2)C(=O)N(C)[C@@H](C(CC)CC)C(=O)N(C)[C@H](C(=O)N(C)C)CC(=O)N1C [PP2458]	A (a compound having 10 or more and less than 20 is denoted as A)	A (a compound having 10 or more and less than 20 is denoted as A)
CCOC[C@H]1C(=O)N[C@@H]([C@@H](C)CC)C(=O)N(C)CC(=O)N(C)[C@H]2C/C=C\CCN(C2=O)[C@@H](CC2CCC(F)(F)CC2)C(=O)N(C)CC(=O)N[C@@H](CCc2ccc(C(F)(F)F)c(Cl)c2)C(=O)N2C[C@H](OCC)C[C@H]2C(=O)NC2(CC(C)(C)C2)C(=O)N(C)[C@@H](C(CC)CC)C(=O)N(C)[C@H](C(=O)N(C)C)CC(=O)N1C [PP2460]	A (a compound having 10 or more and less than 20 is denoted as A)	A (a compound having 10 or more and less than 20 is denoted as A)
CCCOC[C@H]1C(=O)N[C@@H]([C@@H](C)CC)C(=O)N(C)CC(=O)N(C)[C@H]2C/C=C\CCN(C2=O)[C@@H](Cc2ccc(C)cc2)C(=O)N(C)CC(=O)N[C@@H](CCc2ccc(C(F)(F)F)c(OC)c2)C(=O)N2C[C@@H](C)C[C@H]2C(=O)NC2(CC(C)(C)C2)C(=O)N(C)[C@@H](C2CCCC2)C(=O)N(C)[C@H](C(=O)N(C)CC)CC(=O)N1C [PP2461]	A (a compound having 10 or more and less than 20 is denoted as A)	A (a compound having 10 or more and less than 20 is denoted as A)
CCOC[C@H]1C(=O)N[C@@H]([C@@H](C)CC)C(=O)N(C)CC(=O)N(C)[C@H]2C/C=C\CCN(C2=O)[C@@H](CC2CCC(F)(F)CC2)C(=O)N(C)CC(=O)N[C@@H](CCc2cc(F)c(C(F)(F)F)c(F)c2)C(=O)N2C[C@@H](C)C[C@H]2C(=O)NC2(CC(C)(C)C2)C(=O)N(C)[C@@H](C(CC)CC)C(=O)N(C)[C@H](C(=O)N(C)C)CC(=O)N1C [PP2462]	A (a compound having 10 or more and less than 20 is denoted as A)	A (a compound having 10 or more and less than 20 is denoted as A)
CCCOC[C@H]1C(=O)N[C@@H]([C@@H](C)CC)C(=O)N(C)CC(=O)N(C)[C@H]2C/C=C\CCN(C2=O)[C@@H](Cc2ccc(C)cc2)C(=O)N(C)CC(=O)N[C@@H](CCc2ccc(C(F)(F)F)c(OC)c2)C(=O)N2C[C@H](OCC)C[C@H]2C(=O)NC2(CC(C)(C)C2)C(=O)N(C)[C@@H](C2CCCC2)C(=O)N(C)[C@H](C(=O)N(C)CC)CC(=O)N1C [PP2463]	A (a compound having 10 or more and less than 20 is denoted as A)	A (a compound having 10 or more and less than 20 is denoted as A)
CCCOC[C@H]1C(=O)N[C@@H]([C@@H](C)CC)C(=O)N(C)CC(=O)N(C)[C@H]2C/C=C\CCN(C2=O)[C@@H](CC2CCC(F)(F)CC2)C(=O)N(C)CC(=O)N[C@@H](CCc2ccc(C(F)(F)F)c(OC)c2)C(=O)N2C[C@H](OCC)C[C@H]2C(=O)NC2(CC(C)(C)C2)C(=O)N(C)[C@@H](C(CC)CC)C(=O)N(C)[C@H](C(=O)N(C)C)CC(=O)N1C [PP2464]	A (a compound having 10 or more and less than 20 is denoted as A)	A (a compound having 10 or more and less than 20 is denoted as A)
CCOC[C@H]1C(=O)N[C@@H]([C@@H](C)CC)C(=O)N(C)CC(=O)N(C)[C@H]2C/C=C\CCN(C2=O)[C@@H](Cc2ccc(C)cc2)C(=O)N(C)CC(=O)N[C@@H](CCc2ccc(C(F)(F)F)c(Cl)c2)C(=O)N2C[C@@H](C)C[C@H]2C(=O)NC2(CC(C)(C)C2)C(=O)N(C)[C@@H](C2CCCC2)C(=O)N(C)[C@H](C(=O)N(CC)CC)CC(=O)N1C [PP2465]	AA (a compound having 20 or more is denoted as AA)	A (a compound having 10 or more and less than 20 is denoted as A)
CCC(CC)[C@H]1C(=O)N(C)[C@H](C(=O)N(C)C)CC(=O)N(C)[C@@H](COC)C(=O)N[C@@H]([C@@H](C)CC)C(=O)N(C)CC(=O)N(C)[C@H]2C/C=C\CCN(C2=O)[C@@H](CC2CCCCC2)C(=O)N(C)CC(=O)N[C@@H](CCc2ccc(C(F)(F)F)c(OC)c2)C(=O)N2C[C@@H](C)C[C@H]2C(=O)NC2(CC(C)(C)C2)C(=O)N1C [PP2466]	A (a compound having 10 or more and less than 20 is denoted as A)	A (a compound having 10 or more and less than 20 is denoted as A)
CCCOC[C@H]1C(=O)N[C@@H]([C@@H](C)CC)C(=O)N(C)CC(=O)N(C)[C@H]2C/C=C\CCN(C2=O)[C@@H](Cc2ccc(C)cc2)C(=O)N(C)CC(=O)N[C@@H](CCc2ccc(C(F)(F)F)c(Cl)c2)C(=O)N2C[C@@H](C)C[C@H]2C(=O)NC2(CC(C)(C)C2)C(=O)N(C)[C@@H](C2CCCC2)C(=O)N(C)[C@H](C(=O)N(C)CC)CC(=O)N1C [PP2467]	A (a compound having 10 or more and less than 20 is denoted as A)	B (a compound having 3 or more and less than 10 is denoted as B)
CCO[C@@H]1C[C@H]2C(=O)NC3(CC(C)(C)C3)C(=O)N(C)[C@@H](C(CC)CC)C(=O)N(C)[C@H](C(=O)N(C)C)CC(=O)N(C)[C@@H](COC)C(=O)N[C@@H]([C@@H](C)CC)C(=O)N(C)CC(=O)N(C)[C@H]3C/C=C\CCN(C3=O)[C@@H](CC3CCCCC3)C(=O)N(C)CC(=O)N[C@@H](CCc3ccc(C(F)(F)F)c(Cl)c3)C(=O)N2C1 [PP2468]	AA (a compound having 20 or more is denoted as AA)	A (a compound having 10 or more and less than 20 is denoted as A)
